Literature values as cited in the PKSmart pharmacokinetics tables (Seal et al. 2025).

Experiments:
[1] = Lombardo et al. 2013, J Clin Pharmacol 53:178, doi 10.1177/0091270012440282; details: for Vd / clearance: in vivo, iv; for fraction unbound: plasma
[2] = Lombardo, Berellini, Obach 2018, Drug Metab Dispos 46:1466, doi 10.1124/dmd.118.082966; details: human; for MRT / Vd / clearance / half-life: in vivo, iv; for fraction unbound: plasma

| Compound | Vd ([1]; dog) | clearance ([1]; dog) | fraction unbound ([1]; dog) | Vd ([1]; monkey) | clearance ([1]; monkey) | fraction unbound ([1]; monkey) | Vd ([1]; rat) | clearance ([1]; rat) | fraction unbound ([1]; rat) | MRT [2] | Vd [2] | clearance [2] | half-life [2] | fraction unbound [2] |
| --- | --- | --- | --- | --- | --- | --- | --- | --- | --- | --- | --- | --- | --- | --- |
| CO[C@@]1(NC(=O)CSCC#N)C(=O)N2C(C(=O)O)=C(CSc3nnnn3C)CS[C@@H]21 | 0.9 L/kg | 8 mL/min/kg | 0.75 | 0.3 L/kg | 3.3 mL/min/kg | 0.34 | 0.35 L/kg | 25.3 mL/min/kg | 0.55 | 1.5 h | 0.13 L/kg | 1.5 mL/min/kg | 1.5 h | 0.15 |
| COc1ccc2c3c1O[C@H]1[C@@H](O)C=C[C@H]4[C@@H](C2)N(C)CC[C@@]341 | – | – | – | – | – | – | – | – | 0.92 | 3.9 h | 3.5 L/kg | 15 mL/min/kg | 4 h | 0.7 |
| CC(C)(C)NCC(O)c1ccc(O)c(CO)c1 (stereo not given) | 3.9 L/kg | – | 0.05 | – | – | – | 30 L/kg | – | 0.05 | 4.1 h | 1.9 L/kg | – | – | – |
| CCCCNC(=O)NS(=O)(=O)c1ccc(C)cc1 | – | – | – | – | – | – | 0.13 L/kg | 0.42 mL/min/kg | – | 9.5 h | 0.12 L/kg | – | 7 h | – |
| CC(C)(C)NC(=O)C1C[C@@H]2CCCC[C@@H]2CN1C[C@@H](O)[C@H](Cc1ccccc1)NC(=O)C(CC(N)=O)NC(=O)c1ccc2ccccc2n1 (stereo not given in full) | – | – | – | – | – | – | 3 L/kg | – | 0.007 | 4.6 h | 3.6 L/kg | – | 13 h | – |
| NC(=O)c1ncn([C@@H]2O[C@H](CO)[C@@H](O)[C@H]2O)n1 | – | – | – | – | 3.7 mL/min/kg | 0.497 | – | 43 mL/min/kg | – | 45 h | – | 5.2 mL/min/kg | 45 h | – |
| CNCCCN1c2ccccc2CCc2ccccc21 | – | – | – | – | – | – | 19.8 L/kg | – | – | 23 h | 15 L/kg | – | 22 h | – |
| COc1cc2c3cc1Oc1cc(ccc1O)C[C@@H]1c4c(cc(OC)c([O-])c4Oc4ccc(cc4)C[C@@H]3N(C)CC2)CC[N+]1(C)C | 0.37 L/kg | 3.73 mL/min/kg | – | – | – | – | – | – | – | 2.2 h | 0.45 L/kg | 3.4 mL/min/kg | 2 h | 0.58 |
| COc1cc(Cc2cnc(N)nc2N)cc(OC)c1OC | 1.74 L/kg | – | 0.708 | – | – | – | 2.1 L/kg | – | 0.51 | 12 h | 1.5 L/kg | – | 9.6 h | – |
| C[C@@H]1CN(C2CCC(C#N)(c3ccc(F)cc3)CC2)CC[C@]1(C(=O)O)c1ccccc1 (stereo not given in full) | – | – | – | – | – | – | 1.36 L/kg | 27 mL/min/kg | 0.46 | 45.3 h | 1.17 L/kg | 0.43 mL/min/kg | 33 h | 0.453 |
| Cc1ccc(C(=O)c2cc(O)c(O)c([N+](=O)[O-])c2)cc1 | 0.16 L/kg | 1.9 mL/min/kg | – | – | – | – | 0.21 L/kg | 8.8 mL/min/kg | – | 1.1 h | 0.12 L/kg | 1.9 mL/min/kg | 1.1 h | 0.0012 |
| CCC1(c2cccc(O)c2)CCCCN(C)C1 (stereo not given) | – | – | – | – | – | – | 4.4 L/kg | 58.4 mL/min/kg | – | 2 h | 3.3 L/kg | 28 mL/min/kg | 1.7 h | 0.73 |
| O=C(O)Cc1ccccc1Nc1c(Cl)cccc1Cl | 0.19 L/kg | 1.4 mL/min/kg | – | 0.32 L/kg | 8.5 mL/min/kg | – | 1.39 L/kg | 16.8 mL/min/kg | – | 1 h | 0.22 L/kg | 3.5 mL/min/kg | 1.4 h | – |
| COc1cc2nc(N3CCN(C(=O)C(C)OC)CC3)nc(N)c2cc1OC (stereo not given) | – | – | – | – | – | – | 5.9 L/kg | 44.2 mL/min/kg | – | 13.7 h | 0.44 L/kg | 0.53 mL/min/kg | – | – |
| CO[C@]12CC[C@@]3(C[C@@H]1[C@](C)(O)C(C)(C)C)[C@H]1Cc4ccc(O)c5c4[C@@]3(CCN1CC1CC1)[C@H]2O5 | – | – | – | – | – | – | 8.37 L/kg | 0.05 mL/min/kg | – | – | – | – | 3.2 h | – |
| CN1CCN(C2=Nc3cc(Cl)ccc3Nc3ccccc32)CC1 | – | – | – | – | – | – | 8.68 L/kg | – | – | 11 h | 1.6 L/kg | – | 10 h | – |
| CCCC(=O)OCOC(=O)C1=C(C)NC(C)=C(C(=O)OC)C1c1cccc(Cl)c1Cl (stereo not given) | 0.21 L/kg | – | – | – | – | – | 0.44 L/kg | – | – | 0.07 h | 0.58 L/kg | – | 0.3 h | – |
| CN(C)CCc1c[nH]c2ccc(C[C@H]3COC(=O)N3)cc12 | – | – | – | – | – | – | 3.53 L/kg | 29.4 mL/min/kg | – | 4.6 h | 1.8 L/kg | 6.7 mL/min/kg | 3.6 h | – |
| COc1cccc2c1C(=O)c1c(O)c3c(c(O)c1C2=O)C[C@@](O)(C(=O)CO)C[C@@H]3O[C@H]1C[C@H](N)[C@H](O)[C@H](C)O1 | 31.6 L/kg | 7.93 mL/min/kg | – | – | – | – | 5.5 L/kg | 32.4 mL/min/kg | – | 24 h | 22 L/kg | 15 mL/min/kg | 32 h | – |
| CCN(C(C)=O)c1cccc(-c2ccnc3c(C#N)cnn23)c1 | – | – | – | – | – | – | 1.72 L/kg | 20.7 mL/min/kg | – | 1.4 h | 1.3 L/kg | – | – | 0.4 |
| CN(C)CCC=C1c2ccccc2CCc2ccccc21 | – | – | – | – | – | – | 11 L/kg | 71 mL/min/kg | 0.11 | 24 h | 8.7 L/kg | 6.1 mL/min/kg | 17 h | – |
| C[C@H]1NCc2cc(-c3ccc4c(=O)c(C(=O)O)cn(C5CC5)c4c3OC(F)F)ccc21 | 1.29 L/kg | 2.43 mL/min/kg | 0.23 | 0.96 L/kg | 3.39 mL/min/kg | 0.19 | 0.9 L/kg | 12.1 mL/min/kg | 0.13 | 13.7 h | 1 L/kg | 1.23 mL/min/kg | – | 0.25 |
| COc1cc(NS(C)(=O)=O)ccc1Nc1c2ccccc2nc2ccccc12 | 2.8 L/kg | 16 mL/min/kg | 0.081 | – | – | – | 4.5 L/kg | 83 mL/min/kg | 0.1 | 6.2 h | 1.6 L/kg | 4.3 mL/min/kg | 4.7 h | 0.029 |
| C[C@@H](O)C1C(=O)N2C(C(=O)O)=C(SCCOC(N)=O)S[C@H]12 (stereo not given in full) | 0.24 L/kg | – | – | 0.21 L/kg | – | – | 0.14 L/kg | – | – | 0.67 h | 0.3 L/kg | – | 0.8 h | 0.35 |
| CCCCCNC(=O)c1coc([C@H]2[C@@H](Cc3ccccc3CCC(=O)O)[C@@H]3CC[C@H]2O3)n1 | 11 L/kg | 65 mL/min/kg | – | 5.5 L/kg | 19.1 mL/min/kg | – | 2.8 L/kg | 87.5 mL/min/kg | – | 11 h | 4.4 L/kg | 6.4 mL/min/kg | 22 h | – |
| COc1cc([C@@H]2c3cc4c(cc3[C@@H](O[C@@H]3O[C@@H]5CO[C@@H](C)O[C@H]5[C@H](O)[C@H]3O)[C@H]3COC(=O)C23)OCO4)cc(OC)c1O (stereo not given in full) | 1.4 L/kg | 13 mL/min/kg | 0.63 | 0.16 L/kg | 1.5 mL/min/kg | 0.0051 | 0.58 L/kg | 23 mL/min/kg | 0.43 | 6 h | 0.18 L/kg | – | 5.7 h | – |
| COc1ccc(CCNCC(O)COc2cccc(C)c2)cc1OC (stereo not given) | 4 L/kg | 45 mL/min/kg | 0.04 | – | – | – | – | – | 0.06 | 2 h | 0.67 L/kg | 5.5 mL/min/kg | 1.9 h | 0.015 |
| CCCC[C@@H]1CC(=O)[C@]2(O)O[C@@H]3[C@@H](NC)[C@@H](O)[C@@H](NC)[C@H](O)[C@H]3O[C@@H]2O1 | 49.8 L/kg | 2.69 mL/min/kg | 0.533 | – | – | – | 4.46 L/kg | 4.28 mL/min/kg | 0.62 | 6.9 h | 0.7 L/kg | 1.7 mL/min/kg | 11 h | 0.65 |
| CC(CC(c1ccccc1)c1ccccc1)NC(C)(C)C (stereo not given) | – | 41 mL/min/kg | 0.14 | – | – | – | – | – | – | 81 h | 5.1 L/kg | 1.1 mL/min/kg | 56 h | – |
| CO[C@@]1(NC(=O)C(C(=O)O)c2ccc(O)cc2)C(=O)N2C(C(=O)O)=C(CSc3nnnn3C)CO[C@@H]21 (stereo not given in full) | 0.2 L/kg | 2.2 mL/min/kg | 0.66 | 0.19 L/kg | 2.3 mL/min/kg | 1 | 0.25 L/kg | 9.1 mL/min/kg | 1 | 3.9 h | 0.17 L/kg | 0.72 mL/min/kg | 2.9 h | 0.39 |
